≈ marks a conversion by molar mass, not a printed value. Read-outs that look alike come from different tables or passages of the source.
Legend:
[1] = test system: Artemia franciscana; test: Ecotoxicity toward aquatic life, Artoxkit M immobilization test; type: in vivo; details: for EC50: Artemia franciscana; for Class: acute toxicity rating scale by Fish and Wildlife Service
Method: To determine the EC50 parameter for compounds, tests were carried out on marine crustaceans—Artemia franciscana (A. franciscana). The methodology proposed in the Artoxkit M test (MicroBioTests Inc., Gent, Belgium) was developed according to the ASTM E1440-91 standard.
The hatching process was started first. For this purpose, 50 mg of cysts was transferred to the Petri dishes attached to the Artoxkit M set, which were then immersed in 10 mL of artificial seawater with a salinity of 35‰ (a medium for the development of the tested organisms, as well as a solvent for preparing solutions of the tested compounds) and placed at a temperature of 25 °C, with access to light (6000–10,000 lux) for 30 h. Then, 2 h before placing them on the Artoxkit M plates, 20 mg of spirulina was added to cultured artemias. In addition, 1 h before the analysis, the used seawater was oxygenated by passing a stream of air through the solution. To each of the four cells in a given row of a plate from the Artoxkit M kit, 1 mL of solution at the specified concentrations (or the appropriate medium in the case of a control) were introduced. In the first column of cells (a control sample and five selected concentrations), no less than 30 artemias were placed from previously prepared Petri dishes. Then, from the first cell in the first column, artemias were collected at the selected concentration and added to the next three cells in the selected row, 10 organisms per cell. After the organisms were introduced into the appropriate cells, the plates were covered with Parafilm and then closed with a plastic cap. The prepared kit was incubated at 25 °C and protected from light. Number of motionless organisms were counted after 24 and 48 h. Immobilization was then calculated (eq 1) in relation to the number of organisms at the start of the test: [drawing 1] 1
Next, the dependence between the effect and concentration of the tested compounds was plotted, and on this basis, an EC50 value was determined.

[2] = test system: Pseudomonas aeruginosa; test: MIC and MBC determination, microdilution method; type: cell-based; details: for MIC: 18 h, read-out: MIC, P. aeruginosa
Method: (§1) The antimicrobial activities of the compounds were tested against clinical strains of an aerobic Gram-negative bacterium—Pseudomonas aeruginosa (P. aeruginosa), facultative anaerobic Gram-positive bacteria—Staphylococcus aureus (S. aureus) and Staphylococcus epidermidis (S. epidermidis), anaerobic Gram-positive bacterium—Cutibacterium acnes (C. acnes), and yeast-like fungus—Candida albicans (C. albicans).
(§2) Aerobic and facultative anaerobic bacteria cultures were grown in Brain Heart Infusion broth (BHI, bioMerieux, France) at 35 °C ± 1 °C for 18 h, C. acnes cultures were grown in thioglycolate broth with resazurin (TGB, bioMerieux, France) at 35 ± 1 °C for 48 h, and yeast cultures were grown in Sabouraud dextrose broth (SDB, Merck, Germany) at 35 ± 1 °C for 24 h. After incubation, each culture was diluted in a suitable liquid medium: P. aeruginosa, S. aureus, and S. epidermidis—Mueller–Hinton broth (MHB; Oxoid, UK); C. acnes—TGB; and C. albicans—SDB, to obtain a final suspension containing about 10^6 CFU/mL.
(§3) The microdilution method was employed to determine the compounds’ MIC (Minimal Inhibitory Concentration) and MBC/MFC (Minimal Bactericidal Concentration/Minimal Fungicidal Concentration) against the tested bacterial and fungal strains.
(§4) The compounds were serially diluted (2-fold) in the respective media (P. aeruginosa, S. aureus, and S. epidermidis—MHB, C. acnes—TGB, and C. albicans—SDB in 96-well plates), and the microbial suspensions were added. The compounds were tested in the final concentration range of 4 096 to 0.125 μg/mL, and the final microbial inoculum was approximately 5 ×10^5 CFU/mL. The tests were incubated at 35 °C ± 1 °C for 18 h (P. aeruginosa, S. aureus, and S. epidermidis) or 24 h (C. albicans) or 48 h (C. acnes). C. acnes was incubated in an anaerobic atmosphere using a GENbag anaer (bioMerieux, France). Media (without the strains) added to the different concentrations of tested compounds and media inoculated with microbial suspension were used as a negative control and growth control, respectively.
(§5) The MIC was defined as the lowest concentration at which visible growth was inhibited. MBC and MFC concentrations were determined as an extension of the MIC test. […] The plates were incubated at 35 ± 1 °C for 18–72 h. C. acnes was incubated in an anaerobic atmosphere. The MBC/MFC was defined as the lowest concentration at which no growth was observed. All tests were performed in duplicate.

[3] = test system: Cutibacterium acnes; test: MIC and MBC determination, microdilution method; type: cell-based; details: Cutibacterium acnes; for MIC: 48 h, read-out: MIC, C. acnes; for MBC: read-out: MBC, C. acnes
Method: as §1, §2, §3, §4, §5

[4] = test system: Candida albicans; test: MIC and MFC determination, microdilution method; type: cell-based; details: clinical strain, tested 4 096 to 0.125 μg/mL, b = out of range
Method: as §1, §2, §3, §4, §5

[5] = immobilization, motionless organisms counted after 24 and 48 h, 25 °C, read-out: EC50
[6] = toxicity range of EC50, read-out: Range
[7] = clinical strain, anaerobic, tested 4 096 to 0.125 μg/mL, b = out of range

SMILES	EC50 [1, 5]	EC50 [1, 6]	Class [1]	MIC ([2]; clinical strain, tested 4 096 to 0.125 μg/mL, b = out of range)	MBC ([2]; clinical strain, tested 4 096 to 0.125 μg/mL, b = out of range, read-out: MBC, P. aeruginosa)	MIC [3, 7]	MBC [3, 7]	MIC ([4]; 24 h, read-out: MIC, C. albicans)	MFC ([4]; read-out: MFC, C. albicans)	MIC [2]	MIC [3]	MBC [3]
CCCCCCCC[n+]1cccc(C(N)=O)c1.O=C([O-])c1ccccc1O [compound 4]	360 µg/mL	100 to 1000 µg/mL	Practically Nontoxic (100-1000)	–	–	–	–	–	–	–	–	–
O=C(O)c1ccccc1O [SAL, salicylic acid, reference compound]	300 µg/mL (≈ 2.17 mM)	100 to 1000 µg/mL (≈ 0.724 to 7.24 mM)	Practically Nontoxic (100-1000)	2050 µg/mL (≈ 14.8 mM)	4100 µg/mL (≈ 29.7 mM)	1020 µg/mL (≈ 7.41 mM)	4100 µg/mL (≈ 29.7 mM)	2050 µg/mL (≈ 14.8 mM)	2050 µg/mL (≈ 14.8 mM)	–	–	–
CCCCCCCCCC[n+]1cccc(C(N)=O)c1.O=C([O-])c1ccccc1O [compound 5]	138 µg/mL	100 to 1000 µg/mL	Practically Nontoxic (100-1000)	–	–	–	–	–	–	1020 µg/mL	1020 µg/mL	1020 µg/mL
CCCCCC[n+]1cccc(C(N)=O)c1.O=C([O-])c1ccccc1O [compound 3]	692 µg/mL	100 to 1000 µg/mL	Practically Nontoxic (100-1000)	–	–	–	–	–	–	–	–	–

From article PMC11372839, “Unraveling the Potential of Vitamin B3-Derived Salts with a Salicylate Anion as Dermal Active Agents for Acne Treatment” (Molecular Pharmaceutics, 2024)
